{
  "source": "PubChem BioAssay AID1963849",
  "about": "(Molecular Pharmacology Branch, DTP, NCI, 2024)",
  "system": "299254-011-R-J1-PDC complex spheroid viability",
  "assay": "Anticancer human tumor 299254-011-R-J1-PDC patient-derived melanoma cell line growth inhibition [POLQ]",
  "settings": "for viability, T/C: stronger effect = lower value",
  "procedure": "Multicellular complex tumor spheroid response to Polymerase (POL) inhibitors (novobiocin, ART-558, RP6685) in combination with a variety of drugs and investigational agents in selected tumor cell lines\nThe POL inhibitors (novobiocin, ART-558, and RP6685) were evaluated both individually and in combination with standard of care and investigational anticancer small molecules within a complex spheroid model of solid tumors. . Complex spheroids include a stromal component modeled by human endothelial cells (HUVEC) and fibroblasts modeled by human mesenchymal stem cells (MSCs). The concentration ranges selected for each drug and investigational agent were based upon clinically achievable concentrations if the clinical Cmax of the agent was known.\nCompounds. The drugs and investigational agents: novobiocin (NSC847541), ART-558 (NSC835418), RP-6685 (NSC848927), peposertib (NSC802822), ceralasertib (NSC780249), elimusertib (NSC800525), camonsertib (NSC841442), AZD-1390 (NSC803789), olaparib (NSC753686), talazoparib (NSC767125), rucaparib (NSC756644), sotorasib (NSC818433), MRTX-1133 (NSC836407), SN-38 (NSC673596), topotecan (NSC609699), epotoside (NSC141540), doxorubicin (NSC123127), gemcitabine (NSC613327), 5-fluorouracil (NSC19893), paclitaxel (NSC125973), vemurafenib (NSC761431), MSA-2 (NSC828583), SN-011 (NSC837082), adavosertib (NSC754352), prexasertib (NSC758257), carboplatin (NSC241240) and oxaliplatin (NSC266046), were obtained from the National Cancer Institute (NCI) Developmental Therapeutics Program Chemical Repository (21). The FDA-approved anticancer drug set is available from the Developmental Therapeutics Program at https://dtp.cancer.gov/organization/dscb/obtaining/. […] The stock solutions were prepared in dimethyl sulfoxide (DMSO, Sigma-Aldrich, St. Louis, MO, cat. D2650), except for the platinum compounds which were prepared in saline (Quality Biological, Gaithersburg, MD, cat. 114-055-101), at 800-fold the tested concentration and stored at -70 degrees C prior to their use. All drugs and investigational agents were tested over a range starting from a high concentration at or near the clinical Cmax and decreasing in half-log increments. If the clinical Cmax for an agent had not been determined, the highest concentration tested was 10 microM, except for SN-38, which was tested at a high concentration of 1 microM.\nCell Culture. All cells were maintained in an incubator at 37 degrees C and 5% CO2 with 95% humidity. The PDC lines were cultured according to standard operating procedures established by the NCI PDMR (https://pdmr.cancer.gov). Table 3 of the manuscript, lists the cell lines along with the number of the three cell types plated to form the mct-spheroids and media for tumor cell growth. After thawing, all PDC lines, except 997537-175-T-J1-PDC and 415267-285-R-J2-PDC, were cultured in Matrigel-coated flasks prepared with a working solution of 1X Ham's F-12 nutrient mix, without supplementation (Thermo Fisher Scientific, cat. 11765054), 100 U/mL penicillin-streptomycin (Thermo Fisher Scientific, cat. 15140122), and 2.5% Matrigel (Corning Inc., Corning, NY, cat. 354248) for the first three passages. The two PDC lines 997537-175-T-J1-PDC and 415267-285-R-J2-PDC were cultured on uncoated flasks. The 857933-349-R-J2-PDC line was cultured in 6C/Colon 1B media containing advanced DMEM/F-12 (Thermo Fisher Scientific, cat. 12634028), 10 mM HEPES (Thermo Fisher Scientific, cat. 15630080), 1X GlutaMAX supplement (Thermo Fisher Scientific, cat. 35050061), 0.1 mg/mL primocin (InvivoGen, San Diego, CA, cat. ant-pm-2), 10% defined fetal bovine serum, heat inactivated (HyClone Laboratories Inc., Logan, UT, cat. SH30070.03HI), 50% L-WRN conditioned media (ATCC, cat. CRL-3276), 1.25 mM N-Acetyl-L-cysteine (Sigma-Aldrich, cat. A9165), 10 mM nicotinamide (Sigma-Aldrich, cat. N0636), 1X B-27 supplement (Thermo Fisher Scientific, cat. 17504044), 1X N-2 supplement (Thermo Fisher Scientific, cat. […]",
  "note": "“And” between values parts separate entries of the source, which are not always exact repeats. Equal entries are not always repeated.",
  "data": [
    {"molecule": "O=C(c1cc(Cc2n[nH]c(=O)c3ccccc23)ccc1F)N1CCN(C(=O)C2CC2)CC1", "note": "+ Cc1cccc(N(C)C(=O)C2C(O)CCN2c2nc(C)cc(C(F)(F)F)c2C#N)c1;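 also: spheroids exposed to drugs for one week before measurement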;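 as to viability, T/C: percent viability relative to DMSO vehicle control taken as 100%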", "values": [
      {"measurement": "IC50", "setting": "curve of first compound, second compound 0.0316 µM", "result": "> 10", "unit": "µM"},
      {"measurement": "IC50", "setting": "curve of first compound, second compound 0.1 µM", "result": "> 10", "unit": "µM"},
      {"measurement": "IC50", "setting": "curve of first compound, second compound 0.316 µM", "result": "> 10", "unit": "µM"},
      {"measurement": "IC50", "setting": "curve of first compound, second compound 1 µM", "result": "> 10", "unit": "µM"},
      {"measurement": "IC50", "setting": "curve of first compound, second compound 3.16 µM", "result": "> 10", "unit": "µM"},
      {"measurement": "IC50", "setting": "curve of first compound, second compound 10 µM", "result": "> 10", "unit": "µM"},
      {"measurement": "viability, T/C", "setting": "second compound 0.0316 µM, first compound 0.0316 µM", "result": 90.3, "unit": "%"},
      {"measurement": "viability, T/C", "setting": "second compound 0.0316 µM, first compound 0.1 µM", "result": 85.9, "unit": "%"},
      {"measurement": "viability, T/C", "setting": "second compound 0.0316 µM, first compound 0.316 µM", "result": 98.3, "unit": "%"},
      {"measurement": "viability, T/C", "setting": "second compound 0.0316 µM, first compound 1 µM", "result": 104, "unit": "%"},
      {"measurement": "viability, T/C", "setting": "second compound 0.0316 µM, first compound 3.16 µM", "result": 99.6, "unit": "%"},
      {"measurement": "viability, T/C", "setting": "second compound 0.0316 µM, first compound 10 µM", "result": 101, "unit": "%"},
      {"measurement": "viability, T/C", "setting": "second compound 0.1 µM, first compound 0.0316 µM", "result": 93.5, "unit": "%"},
      {"measurement": "viability, T/C", "setting": "second compound 0.1 µM, first compound 0.1 µM", "result": 108, "unit": "%"},
      {"measurement": "viability, T/C", "setting": "second compound 0.1 µM, first compound 0.316 µM", "result": 95, "unit": "%"},
      {"measurement": "viability, T/C", "setting": "second compound 0.1 µM, first compound 1 µM", "result": 97.5, "unit": "%"},
      {"measurement": "viability, T/C", "setting": "second compound 0.1 µM, first compound 3.16 µM", "result": 110, "unit": "%"},
      {"measurement": "viability, T/C", "setting": "second compound 0.1 µM, first compound 10 µM", "result": 77.4, "unit": "%"},
      {"measurement": "viability, T/C", "setting": "second compound 0.316 µM, first compound 0.0316 µM", "result": 93, "unit": "%"},
      {"measurement": "viability, T/C", "setting": "second compound 0.316 µM, first compound 0.1 µM", "result": 94, "unit": "%"},
      {"measurement": "viability, T/C", "setting": "second compound 0.316 µM, first compound 0.316 µM", "result": 95.9, "unit": "%"},
      {"measurement": "viability, T/C", "setting": "second compound 0.316 µM, first compound 1 µM", "result": 104, "unit": "%"},
      {"measurement": "viability, T/C", "setting": "second compound 0.316 µM, first compound 3.16 µM", "result": 106, "unit": "%"},
      {"measurement": "viability, T/C", "setting": "second compound 0.316 µM, first compound 10 µM", "result": 83.8, "unit": "%"},
      {"measurement": "viability, T/C", "setting": "second compound 1 µM, first compound 0.0316 µM", "result": 125, "unit": "%"},
      {"measurement": "viability, T/C", "setting": "second compound 1 µM, first compound 0.1 µM", "result": 101, "unit": "%"},
      {"measurement": "viability, T/C", "setting": "second compound 1 µM, first compound 0.316 µM", "result": 108, "unit": "%"},
      {"measurement": "viability, T/C", "setting": "second compound 1 µM, first compound 1 µM", "result": 117, "unit": "%"},
      {"measurement": "viability, T/C", "setting": "second compound 1 µM, first compound 3.16 µM", "result": 102, "unit": "%"},
      {"measurement": "viability, T/C", "setting": "second compound 1 µM, first compound 10 µM", "result": 80.2, "unit": "%"},
      {"measurement": "viability, T/C", "setting": "second compound 3.16 µM, first compound 0.0316 µM", "result": 96.4, "unit": "%"},
      {"measurement": "viability, T/C", "setting": "second compound 3.16 µM, first compound 0.1 µM", "result": 111, "unit": "%"},
      {"measurement": "viability, T/C", "setting": "second compound 3.16 µM, first compound 0.316 µM", "result": 99.6, "unit": "%"},
      {"measurement": "viability, T/C", "setting": "second compound 3.16 µM, first compound 1 µM", "result": 115, "unit": "%"},
      {"measurement": "viability, T/C", "setting": "second compound 3.16 µM, first compound 3.16 µM", "result": 92.8, "unit": "%"},
      {"measurement": "viability, T/C", "setting": "second compound 3.16 µM, first compound 10 µM", "result": 74.2, "unit": "%"},
      {"measurement": "viability, T/C", "setting": "second compound 10 µM, first compound 0.0316 µM", "result": 102, "unit": "%"},
      {"measurement": "viability, T/C", "setting": "second compound 10 µM, first compound 0.1 µM", "result": 94.5, "unit": "%"},
      {"measurement": "viability, T/C", "setting": "second compound 10 µM, first compound 0.316 µM", "result": 83.2, "unit": "%"},
      {"measurement": "viability, T/C", "setting": "second compound 10 µM, first compound 1 µM", "result": 89.2, "unit": "%"},
      {"measurement": "viability, T/C", "setting": "second compound 10 µM, first compound 3.16 µM", "result": 92.9, "unit": "%"},
      {"measurement": "viability, T/C", "setting": "second compound 10 µM, first compound 10 µM", "result": 69, "unit": "%"}
    ]},
    {"molecule": "COc1ccc([C@@H](O)c2cc(-c3ncnc4cc(N5CCOCC5)ccc34)c(F)cc2Cl)nn1", "values": [
      {"measurement": "viability, T/C", "setting": "compound 0.0316 µM", "result": "106% and 102% and 92.9%"},
      {"measurement": "viability, T/C", "setting": "compound 0.1 µM", "result": "86.3% and 91.9% and 94.6%"},
      {"measurement": "viability, T/C", "setting": "compound 0.316 µM", "result": "106% and 96.2% and 105%"},
      {"measurement": "viability, T/C", "setting": "compound 1 µM", "result": "94% and 100% and 99%"},
      {"measurement": "viability, T/C", "setting": "compound 3.16 µM", "result": "92.6% and 84.1% and 88.5%"},
      {"measurement": "viability, T/C", "setting": "compound 10 µM", "result": "49.3% and 50% and 43.6%"},
      {"measurement": "IC50", "setting": "curve of compound", "result": "9.87 µM and > 10 µM and 8.57 µM"}
    ]}
  ]
}
